Laboratory results from patent US20260250278A1, “PHENYL-SUBSTITUTED DIHYDRONAPHTHYRIDINE COMPOUNDS, AND PREPARATION AND USE THEREOF” (SUZHONG PHARMACEUTICAL GROUP CO., LTD., priority 2022, published 2026).

Experiments:
[1] = test system: diabetic nephropathy mouse model; assay: Pharmacodynamic effects on diabetic nephropathy mouse model; assay type: in vivo; details: KK-Ay mice
Method: The pharmacodynamic effects of the compounds 36 and 62 on the diabetic nephropathy mouse model were evaluated.
• Strain: C57BL/6 mice, and KK-Ay mice • Weeks of age: the animals were raised to 6 weeks to 8 weeks of age, and the experiment was started when the animals were 7 weeks to 9 weeks of age • Sex: male • Weight: C57BL/6 mice: 21 g to 23 g, and KK-Ay mice: 25 g to 30 g • Number: 72 experimental animals
On the day of administration, the animals were randomly divided into 9 groups according to their weights, comprising a model group (KK-Ay+solvent), a Finerenone group (KK-Ay+Finerenone: 3 mg/kg), a low-dose compound 62 group (KK-Ay+compound 62: 1 mg/kg), a middle-dose compound 62 group (KK-Ay+compound 62: 3 mg/kg) and high-dose compound 62 group (KK-Ay+compound 62: 10 mg/kg), a low-dose compound 36 group (KK-Ay+compound 36: 1 mg/kg), a middle-dose compound 36 group (KK-Ay+compound 36: 3 mg/kg) and a high-dose compound 36 group (KK-Ay+compound 36: 10 mg/kg). Specific grouping and administration schemes referred to Table 70-2.
When the experiment was started, 24-hour urine of the mice was collected by a metabolic cage in 2nd, 4th, 6th and 8th weeks before and after modeling, and microalbumin (MALB) and creatinine (CREA) contents of the urine were detected by CANON TBA-120FR automatic blood biochemistry to calculate (MALB/CREA).
When the experiment was ended, the mice were euthanized, the blood was taken by heart puncture and put into an anticoagulant-free EP tube, allowed to stand at room temperature for 0.5 hour, and then centrifuged at 4° C. and 6000 g for 15 minutes, and the serum was collected and transferred to a new EP tube, and stored in a refrigerator at −80° C. An insulin content of the serum and serum ions were detected by an ELISA method.
After the experiment was ended, the kidneys of all animals were dissected and collected, fixed in formalin, embedded and made into sections for PAS staining and Masson staining, and then quantitatively analyzed.
Experimental results were expressed as “mean value±standard deviation”. The data of each group were statistically analyzed by GraphPad 8.0 software, and p<0.05 was considered to be statistically significant.

[2] = Tissue distribution, AUC ratio of heart to kidney; assay type: in vivo; details: compared with Finerenone

Row | Compound | diabetic nephropathy and hypertension [1] | urinary protein/creatinine ratio [1] | urinary sodium excretion [1] | AUC (tissue distribution) ratio of heart to kidney [2]
1 | CCOc1ncc(C)c2c1[C@H](c1ccc(C#N)c3c1OCO3)C(C(N)=O)=C(C)N2 [Example 62, (S)-4-(7-cyanobenzo[d][1,3]dioxol-4-yl)-5-ethoxy-2,8-dimethyl-1,4-dihydro-1,6-naphthyridine-3-formamide] | improve | significantly reduce | significantly promote | 
2 | CCOc1ncc(C)c2c1[C@H](c1ccc(C#N)c3c1OCC3)C(C(N)=O)=C(C)N2 [Example 36, (S)-4-(4-cyano-2,3-dihydrobenzofuran-7-yl)-5-ethoxy-2,8-dimethyl-1,4-dihydro-1,6-naphthyridine-3-formamide] | improve | significantly reduce | significantly promote | lower
